# Experimental data reported in patent US10759814B2, “Pharmaceutical compositions containing substituted polycyclic pyridone derivatives and prodrug thereof” (priority 2016, dated 2020).
# Several values for one entry are separate records, joined by “and”; a condition that tells them apart may be missing. Identical values can stand only once.
# Test system: influenza virus
# Experiment: Clinical test (Test Example 15): time to alleviation of influenza symptoms
# Settings: for Time until headache symptom is alleviated, median value / Time until muscular or joint pain symptom is alleviated, median value / Time until nasal congestion symptom is alleviated, median value / Time until sore throat symptom is alleviated, median value / Time until cough symptom is alleviated, median value / Time until fatigue symptom is alleviated, median value / Time until feverishness or chills symptom is alleviated, median value: patients with symptom moderate or severe at baseline; for Time to alleviation of influenza symptoms, difference from placebo / Time to alleviation of influenza symptoms, hazard ratio (Cox proportional hazard model relative to placebo) / Time to alleviation of influenza symptoms, median value: ITTI; for Time to alleviation of influenza symptoms, median value: influenza patients 20 to <65 years old
# Text: Test Example 15: Clinical Test
# As for the primary endpoint, subjects made evaluations by themselves on a 4-point scale [0: none, 1: mild, 2: moderate, 3: severe] concerning the time to alleviation of influenza symptoms (the time from the beginning of administration of the investigational drug until 7 influenza symptoms (“cough”, “sore throat”, “headache”, “nasal congestion”, “feverishness or chills”, “muscular or joint pain”, and “fatigue”) were alleviated) to evaluate the efficacy of the investigational drug over the placebo.
# Patients who satisfied all of the following criteria were selected as subjects.
# (a) Male or female patients at 20 years old or older and younger than 65 years old
# (b) Patients satisfying all of the following criteria and diagnosed with influenza virus infectious disease
# The main efficacy endpoint is the time to alleviation of influenza symptoms (the time to alleviation of influenza symptoms).
# It is the time from the beginning of administration until alleviation of influenza symptoms. Alleviation of influenza symptoms refers to when all 7 influenza symptoms (cough, sore throat, headache, nasal congestion, feverishness or chills, muscular or joint pain, fatigue) become “0: none” or “1: mild” in the patient diary that the subject keeps, and this condition continues at least 21.5 hours (24 hours—10%).
# Secondary Efficacy Endpoint
# The secondary efficacy endpoint is as follows.
# (1) Time to Alleviation of Each Influenza Symptom
# It is the time from the beginning of administration until alleviation of each influenza symptom. Alleviation of a symptom refers to when the target item becomes “0: none” or “1: mild”, and this condition continues at least 21.5 hours (24 hours—10%).
# Analysis of Primary Endpoint
# As for the time to alleviation of influenza symptoms, which is the primary endpoint, the primary analysis and the secondary analysis are described. In addition to the ITTI group, the primary analysis was also performed on the PPS group for sensitivity analysis. Other analyses were performed only on the ITTI group.
# The hazard ratio, 95% confidence interval, and P value of each administered group relative to the placebo group were calculated by a Cox proportional hazard model using the time to alleviation of influenza symptoms as a response, the administered groups as fixed effects, and the current smoking habit and the total score of 7 influenza symptoms at baseline before administration, which are allocation factors, as covariates. In order to prevent an increase of the probability of type I error due to performing the test multiple times, the P value was adjuste d by the Hommel's method.
# The placebo group and each investigational drug administered group were compared by stratified generalized Wilcoxon test using the time to alleviation of influenza symptoms as a response, the administered groups as explanatory variables, and the category (11 points or less, 12 points or more) of the total score of 7 influenza symptoms before administration and the smoking habit, which are allocation factors, as stratification factors.
# Also, a Kaplan-Meier survival curve was drawn for each group to calculate the median time to alleviation of influenza symptoms and the 95% confidence interval thereof. The Greenwood's method was used for calculating the confidence interval.
# Analysis of Secondary Endpoint
# (1) Time Until Each Alleviation of Influenza Symptom
# The same analysis as in the primary endpoint was performed, with the time until each alleviation of influenza symptom being regarded as a response. At this time, cases where the symptom before administration was “0: none” or “1: mild” were excluded from the analysis target.
structure (smiles),measurement,setting,value
COC(=O)OCOc1c2n(ccc1=O)N([C@@H]1c3ccccc3SCc3c1ccc(F)c3F)[C@@H]1COCCN1C2=O [II-6],"Time until headache symptom is alleviated, median value",single oral 10 mg,42.2 h
same,"Time until muscular or joint pain symptom is alleviated, median value",single oral 10 mg,31.2 h
same,"Time until nasal congestion symptom is alleviated, median value",single oral 10 mg,25.2 h
same,"Time until sore throat symptom is alleviated, median value",single oral 10 mg,35.3 h
same,"Time until cough symptom is alleviated, difference from placebo",single oral 20 mg,-1.4 h
same,"Time until cough symptom is alleviated, hazard ratio (Cox model relative to placebo)",single oral 20 mg,0.883
same,"Time until fatigue symptom is alleviated, difference from placebo",single oral 20 mg,-11.5 h
same,"Time until fatigue symptom is alleviated, hazard ratio (Cox model relative to placebo)",single oral 20 mg,0.876
same,"Time until feverishness or chills symptom is alleviated, difference from placebo",single oral 20 mg,0.6 h
same,"Time until feverishness or chills symptom is alleviated, hazard ratio (Cox model relative to placebo)",single oral 20 mg,0.848
same,"Time until headache symptom is alleviated, difference from placebo",single oral 20 mg,-6.7 h
same,"Time until headache symptom is alleviated, hazard ratio (Cox model relative to placebo)",single oral 20 mg,0.936
same,"Time until muscular or joint pain symptom is alleviated, difference from placebo",single oral 20 mg,-12 h
same,"Time until muscular or joint pain symptom is alleviated, hazard ratio (Cox model relative to placebo)",single oral 20 mg,0.687
same,"Time until nasal congestion symptom is alleviated, difference from placebo",single oral 20 mg,-21.3 h
same,"Time until nasal congestion symptom is alleviated, hazard ratio (Cox model relative to placebo)",single oral 20 mg,0.59
same,"Time until sore throat symptom is alleviated, difference from placebo",single oral 20 mg,1.5 h
same,"Time until sore throat symptom is alleviated, hazard ratio (Cox model relative to placebo)",single oral 20 mg,1.05
same,"Time to alleviation of influenza symptoms, difference from placebo",single oral 20 mg,-26.6 h
same,"Time to alleviation of influenza symptoms, hazard ratio (Cox proportional hazard model relative to placebo)",single oral 20 mg,0.81
same,"Time to alleviation of influenza symptoms, median value",single oral 20 mg,51.0 h and 51 h
same,"Time until cough symptom is alleviated, median value",single oral 20 mg,29.8 h
same,"Time until fatigue symptom is alleviated, median value",single oral 20 mg,31.3 h
same,"Time until feverishness or chills symptom is alleviated, median value",single oral 20 mg,29.4 h
same,"Time until headache symptom is alleviated, median value",single oral 20 mg,37 h
same,"Time until muscular or joint pain symptom is alleviated, median value",single oral 20 mg,29.9 h
same,"Time until nasal congestion symptom is alleviated, median value",single oral 20 mg,21.6 h
same,"Time until sore throat symptom is alleviated, median value",single oral 20 mg,27.8 h
same,"Time until cough symptom is alleviated, difference from placebo",single oral 40 mg,-6.6 h
same,"Time until cough symptom is alleviated, hazard ratio (Cox model relative to placebo)",single oral 40 mg,0.865
same,"Time until fatigue symptom is alleviated, difference from placebo",single oral 40 mg,-11.7 h
same,"Time until fatigue symptom is alleviated, hazard ratio (Cox model relative to placebo)",single oral 40 mg,0.724
same,"Time until feverishness or chills symptom is alleviated, difference from placebo",single oral 40 mg,-5.8 h
same,"Time until feverishness or chills symptom is alleviated, hazard ratio (Cox model relative to placebo)",single oral 40 mg,0.71
same,"Time until headache symptom is alleviated, difference from placebo",single oral 40 mg,-5.8 h
same,"Time until headache symptom is alleviated, hazard ratio (Cox model relative to placebo)",single oral 40 mg,0.655
same,"Time until muscular or joint pain symptom is alleviated, hazard ratio (Cox model relative to placebo)",single oral 40 mg,0.657
same,"Time until nasal congestion symptom is alleviated, hazard ratio (Cox model relative to placebo)",single oral 40 mg,0.564
same,"Time until sore throat symptom is alleviated, difference from placebo",single oral 40 mg,5.6 h
same,"Time until sore throat symptom is alleviated, hazard ratio (Cox model relative to placebo)",single oral 40 mg,1.092
same,"Time to alleviation of influenza symptoms, difference from placebo",single oral 40 mg,-28.2 h
same,"Time to alleviation of influenza symptoms, hazard ratio (Cox proportional hazard model relative to placebo)",single oral 40 mg,0.817
same,"Time to alleviation of influenza symptoms, median value",single oral 40 mg,49.5 h
same,"Time until cough symptom is alleviated, median value",single oral 40 mg,24.6 h
same,"Time until fatigue symptom is alleviated, median value",single oral 40 mg,31.1 h
same,"Time until feverishness or chills symptom is alleviated, median value",single oral 40 mg,23 h
same,"Time until headache symptom is alleviated, median value",single oral 40 mg,37.9 h
same,"Time until muscular or joint pain symptom is alleviated, median value",single oral 40 mg,25.4 h
same,"Time until nasal congestion symptom is alleviated, median value",single oral 40 mg,21.9 h
same,"Time until sore throat symptom is alleviated, median value",single oral 40 mg,31.9 h
